Test [1] concerns cGAS activity in THP1 cells (IFNb as marker). The test can be described thus: Cellular assay to measure cGAS activity (IFNb production in PMA-differentiated THP1 cells stimulated by RDG-Adenovirus-GFP). The format is cell-based, human. The following applies: Homo sapiens, THP-1, THP1 cells, PMA differentiated, RDG-Adenovirus-GFP 1000 MOI, IFNb AlphaLISA, overnight incubation; read-out: IC50 (μM), Cellular assay for Compounds 95-348. The method in brief:
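The readout is secreted IFNb measured by AlphaLISA after overnight compound exposure. THP1 cells, differentiated with PMA for 24 h and rested overnight, were infected with RDG-Adenovirus-GFP (1000 MOI, 4 h) before compounds were added; IC50 came from a 4-parameter logistic fit of inhibition against log concentration.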
(In general: In Alpha technology, singlet oxygen from a donor bead excites a nearby acceptor bead.)

The next test addresses recombinant human cGAS (Homo sapiens (Human), UniProt Q8N884). The experiment in a line: In vitro inhibition assay of cGAS activity (cGAMP production, RapidFire mass spectrometry). The class given is biochemical. The following applies: 10 nM recombinant human cGAS, 60 nM 75-bp dsDNA, ATP, GTP, room temperature 3 hours, read-out: IC50 (μM), In vitro inhibition assay for Compounds 95-348. The method in brief:
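Product cGAMP was quantified by RapidFire MS against a difluoro-cGAMP internal standard after a formic acid quench. The reaction contained 10 nM recombinant full-length human cGAS, 75-bp dsDNA (60 nM), ATP and GTP (50 μM) and ran for 3 h at room temperature. IC50 values came from 4-parameter nonlinear regression.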

Where only a bound is given, the exact number is not on record here.

Sequence of recombinant human cGAS (Q8N884 whole entry): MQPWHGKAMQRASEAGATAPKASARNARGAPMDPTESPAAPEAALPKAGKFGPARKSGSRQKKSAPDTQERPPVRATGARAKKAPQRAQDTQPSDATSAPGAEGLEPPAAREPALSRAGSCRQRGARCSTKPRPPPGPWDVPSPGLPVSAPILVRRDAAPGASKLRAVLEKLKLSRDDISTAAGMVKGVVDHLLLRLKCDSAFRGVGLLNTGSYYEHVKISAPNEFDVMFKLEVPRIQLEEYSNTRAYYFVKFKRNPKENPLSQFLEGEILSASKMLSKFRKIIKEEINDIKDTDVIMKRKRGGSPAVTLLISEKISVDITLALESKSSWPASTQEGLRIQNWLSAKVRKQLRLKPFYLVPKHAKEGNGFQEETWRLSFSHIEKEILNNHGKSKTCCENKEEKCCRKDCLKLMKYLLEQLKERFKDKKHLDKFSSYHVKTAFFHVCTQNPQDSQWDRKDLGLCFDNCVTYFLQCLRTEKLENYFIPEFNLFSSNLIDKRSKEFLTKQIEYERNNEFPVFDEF

Usually IC50 stands for the concentration needed to halve the response being measured. On to `O=C(C1COCCOC1)N1CCn2c(c(-c3cn[nH]c3)c3ccc(Cl)c(Cl)c32)C1` [Example 310, (6,7-Dichloro-10-(1H-pyrazol-4-yl)-3,4-dihydropyrazino[1,2-a]indol-2(1H)-yl)(1,4-dioxepan-6-yl)methanone], for which the values for the IC50 (in test [1]; on recombinant human cGAS) were more than 10 µM and 0.0428 µM, respectively.

Turning to `O=C(CO)Nc1cc(Cl)c(Cl)c2[nH]nc(-c3cn[nH]c3)c12` [Example 336, N-(6,7-Dichloro-3-(1H-pyrazol-4-yl)-1H-indazol-4-yl)-2-hydroxyacetamide], the IC50 was 0.492 µM in test [1] and 0.0385 µM on recombinant human cGAS.

For the compound `O=C(Nc1cc(Cl)c(Cl)c2[nH]nc(-c3cn[nH]c3)c12)C(F)F` [Example 337, N-(6,7-Dichloro-3-(1H-pyrazol-4-yl)-1H-indazol-4-yl)-2,2-difluoroacetamide], the IC50 turned out to be 0.281 µM in test [1] and 0.0124 µM at recombinant human cGAS.

As for `OCCCOc1cc(Cl)c(Cl)c2[nH]c(CO)c(-c3cn[nH]c3)c12` [Example 338, 3-((6,7-Dichloro-2-(hydroxymethyl)-3-(1H-pyrazol-4-yl)-1H-indol-4-yl)oxy)propan-1-ol], the IC50 in test [1] was determined as 0.198 µM; on recombinant human cGAS, 0.00474 µM.

Turning to `CN1CCn2c(c(-c3cn[nH]c3)c3c(OCCCO)cc(Cl)c(Cl)c32)C1=O` [Example 339, 6,7-Dichloro-9-(3-hydroxypropoxy)-2-methyl-10-(1H-pyrazol-4-yl)-3,4-dihydropyrazino[1,2-a]indol-1(2H)-one], the IC50 in test [1] turned out to be 0.426 µM; on recombinant human cGAS, 0.00789 µM.

Regarding `N#CCOc1cc(Cl)c(Cl)c2[nH]c(CO)c(-c3cn[nH]c3)c12` [Example 340, 2-((6,7-Dichloro-2-(hydroxymethyl)-3-(1H-pyrazol-4-yl)-1H-indol-4-yl)oxy)acetonitrile], the IC50 came to 0.516 µM in test [1] and 0.0102 µM at recombinant human cGAS.

In the case of `COc1cc2c(-c3cn[nH]c3)cn(-c3cccnn3)c2cc1Cl` [Example 341, 6-Chloro-5-methoxy-3-(1H-pyrazol-4-yl)-1-(pyridazin-3-yl)-1H-indole], the IC50 was 0.8 µM in test [1] and 0.0276 µM on recombinant human cGAS.

As for `COc1cc2c(-c3cn[nH]c3)cn(-c3ccc(CO)nn3)c2cc1Cl` [Example 342, (6-(6-chloro-5-methoxy-3-(1H-pyrazol-4-yl)-1H-indol-1-yl)pyridazin-3-yl)methanol], the values for the IC50 (in test [1]; at recombinant human cGAS) were 0.964 µM and 0.0261 µM, respectively.

As for `CCOc1cc(Cl)c(Cl)c2c1c(-c1cn[nH]c1)c1n2CC[C@@H]1NC(=O)CO` [Example 343, (S)—N-(5,6-Dichloro-8-ethoxy-9-(1H-pyrazol-4-yl)-2,3-dihydro-1H-pyrrolo[1,2-a]indol-1-yl)-2-hydroxyacetamide], the IC50 in test [1] amounted to 0.565 µM; on recombinant human cGAS, 0.00614 µM.

For the compound `N#CCOc1cc(Cl)c(Cl)c2c1c(-c1cn[nH]c1)c1n2CC[C@@H]1NC(=O)CO` [Example 344, (S)—N-(5,6-Dichloro-8-(cyanomethoxy)-9-(1H-pyrazol-4-yl)-2,3-dihydro-1H-pyrrolo[1,2-a]indol-1-yl)-2-hydroxyacetamide], the IC50 is 0.902 µM in test [1] and 0.00338 µM at recombinant human cGAS.

As for `N#CCOc1cc(Cl)c(Cl)c2c1c(-c1cn[nH]c1)c1n2CCC1CO` (stereo not drawn) [Example 347, 2-((5,6-Dichloro-1-(hydroxymethyl)-9-(1H-pyrazol-4-yl)-2,3-dihydro-1H-pyrrolo[1,2-a]indol-8-yl)oxy)acetonitrile], the IC50 in test [1] came to 0.865 µM; on recombinant human cGAS it was 0.0122 µM.

As to `OCCCOc1cc(Cl)c(Cl)c2c1c(-c1cn[nH]c1)c1n2CC(O)CC1` (stereo not drawn) [Example 348, 3,4-Dichloro-1-(3-hydroxypropoxy)-10-(1H-pyrazol-4-yl)-6,7,8,9-tetrahydropyrido[1,2-a]indol-7-ol], the IC50 in test [1] turned out to be 0.365 µM; at recombinant human cGAS, 0.00695 µM.
